From US20020197244A1, “Compositions and methods for regulating phagocytosis and ICAM-1 expression” (priority 1998, published 2002)

B1: STI: Soybean trypsin inhibitor, a serine protease inhibitor capable of affecting the PAR-2 pathway (protein, UniProt P01070 25-205, looked up)
Trypsin inhibitor A: DFVLDNEGNPLENGGTYYILSDITAFGGIRAAPTGNERCPLTVVQSRNELDKGIGTIISSPYRIRFIAEGHPLSLKFDSFAVIMLCVGIPTEWSVVEDLPEGPAVKIGENKDAMDGWFRLERVSDDEFNNYKLVFCPQQAEDDKCGDIGISIDHDDGTRRLVVSKNKPLVVQFQKLDKESL

Tests used:
[1] = system: monolayer keratinocyte/melanocyte co-cultures; test: Pigmentation in monolayer keratinocyte/melanocyte co-cultures (K-M contact); assay type: cell-based; conditions: keratinocyte-melanocyte contact
Protocol: Since PAR-2 is expressed in keratinocytes, but not in melanocytes, the possible requirement of keratinocyte-melanocyte contact was tested for the effect of Compound I and SLIGRL on melanosome phagocytosis by the keratinocytes. Primary melanocyte cultures (commercially available from Clonetics, San Diego) were plated under epidermal equivalents (EpiDerm, of MatTek, Ashland, Mass.) to create an equivalent-monolayer co-culture with no contact between keratinocytes and melanocytes. These co-cultures were compared to MelanoDerm equivalents (of MatTek), where melanocytes are present in the basal layer of the equivalent. Cultures were treated with Compound I, with the […], and with the PAR-2 agonist SLIGRL. As set forth in Table 3, keratinocytes are indicated by “K”, melanocytes are indicated by “M”, and lack of keratinocyte-melanocyte contact is indicated as “no K-M cont”. […] The same result was also observed with monolayer keratinocyte/melanocyte co-cultures having keratinocyte/melanocyte contact.

[2] = system: human skin, grafted on immuno-suppressed mice; test: Pigmentation of human skin grafted on immuno-suppressed mice; assay type: in vivo
Protocol: Human white facial skin samples were grafted on immuno-suppressed mice using standard techniques. About six weeks later grafts of the same individual, grafted on different mice, were treated with vehicle (ethanol: propylene glycol 70:30), or with 50 μM SLIGRL. Treatment was performed daily, 5 days/week. Darkening of the SLIGRL-treated grafts was visually observed during the last weeks of treatment (see FIG. 7A). On day 66, the animals were sacrificed and their skins were analyzed histologically.
The same experiment was repeated with black human breast skin samples grafted on immuno-suppressed mice. Grafts of the same individual were treated with vehicle (GDL liposomes) or with 1% STI. GDL liposomes were prepared as set forth in Niemiec, et al., with the exception of the following changes: the non-ionic liposomal formulation contained glycerol dilaurate (Emulsynt GDL, ISP Van Dyk)/cholesterol (Croda)/polyoxyethylene-10-stearyl ether (Brij76, ICI)/polyoxyethylene-9-lauryl ether, at ratio of 37.5:12.5:33.3:16.7. Hepes buffer, 0.05M, pH 7.4 (Gibco-BRL of Gaithersburg, Md.) was used as the aqueous phase in the preparation of the liposomes.

[3] = system: fibroblast cell line 92-3T3; test: Fluorescent microsphere ingestion by fibroblasts; assay type: cell-based; conditions: vs untreated fibroblasts; FIG. 3
Protocol: In this example, human primary keratinocytes or the human keratinocyte cell line HaCaT were used as in vitro model systems to study the effect of PAR-2 regulators on keratinocyte phagocytosis. The human primary keratinocytes used are commercially available from Clonetics (San Diego, Calif.). Cells were plated on chamber slides, at 2 chambers/slide and 60,000 cells/chamber. Cells were treated once daily, for two or three days, with Compound I (1μM), SLIGRL (10μM), or vehicle (Phosphate-buffered saline, (“PBS”) from Gibco-BRL (Gaithersburg, Md.). After two or three days of exposure to the test compounds, cells were exposed to Nile-red or FITC fluorescent microspheres, 1 μm in diameter, 50 microspheres/cell, for two hours at 37° C. Microspheres were from Molecular Probes (Eugene, Oreg.), and were processed according to manufacturer's instructions. Following that treatment, cells were incubated with 15% Fetal Bovine Serum (“FBS”, from Gibco-BRL), for 15 minutes at 37° C. and rinsed with PBS. At that time, chambers were separated from the slides, and the slides were covered with glycerol and coverslips. Fluorescent microscopy was performed using a Zeiss Axiovert 35 or a Nikon Optiphot-2 microscope.
The experiment described in Example 1 was repeated using the fibroblast cell line 92-3T3 (obtained from the ATCC in Rockville, Md.). Fibroblasts are not known to posses phagocytic ability.

[4] = system: melanocytes; test: Fluorescent microsphere ingestion by melanocytes; assay type: cell-based; conditions: which do not express PAR-2
[5] = system: human age spots; test: Lightening of human age spots, topical treatment; assay type: in vivo; conditions: STI, 1%, in liposomes (20 mg/ml), twice a day, 8 weeks
Protocol: An individual with three age spots on the dorsum of […] hand was treated for eight weeks, twice a day, as follows. The proximal age spot was treated with placebo, containing 20 mg/ml of liposomes. The median age spot was not treated. The distal age spot was treated with STI, 1%, in liposomes (20 mg/ml). GDL liposomes were prepared as set forth in Niemiec, et al., with the exception of the following changes. The non-ionic liposomal formulation contained glycerol dilaurate (Emulsynt GDL, ISP Van Dyk)/cholesterol (Croda)/polyoxyethylene-10-stearyl ether (Brij76, ICI)/polyoxyethylene-9-lauryl ether, as at ratio of 37.5:12.5:33.3:16.7. Hepes buffer, 0.05M, pH 7.4 (Gibco-BRL of Gaithersburg, Md.) was used as the aqueous phase in the preparation of the liposomes. UV and visible light digital pictures were taken at times of 0, 4 and 8 weeks of treatment. L* (brightness) values were calculated from the images using Adobe Photoshop.
FIG. 11 is a composite of four pictures. The left panel is a visible light picture of the hand, before (upper) and after (lower) 8 weeks of treatment. At this orientation, the proximal age spot is placebo-treated, the median age spot is untreated, and the distal age spot is STI-treated.

Molecule	level of pigmentation, Mono-Layer Co-Cultures (K-M cont.) [1]	visual appearance of grafts ([2]; white facial skin grafts, 50 μM SLIGRL topical daily, 5 days/week, last weeks of treatment, FIG. 7A)	melanin in F&M-stained sections ([2]; white facial skin grafts, 50 μM SLIGRL, day 66, FIG. 7B)	number of ingested beads [3]	microsphere ingestion [4]	increase in L* (brightness) ([5]; calculated from images) [L* units]	age spot appearance ([5]; one individual, FIG. 11)	pigmentation in F&M-stained skin sections ([2]; black breast skin grafts, 1% STI in GDL liposomes, FIG. 7C)
CN[C@H](Cc1ccccc1)C(=O)N1CCCC1C(=O)N[C@@H](CCCNC(=N)N)C(=O)c1nc2ccccc2s1 (stereo partly drawn) [Compound I, (S)-N-Methyl-D-phenylalanyl-N-[4-[(aminoiminomethyl)amino]-1-(2-benzothiazolylcarbonyl)butyl]-L-prolinamide]	lightening							
SLIGRL [reference compound]	darkening	Darkening	increase in melanin	increased the number of ingested beads	no inducible effect on microsphere ingestion			
B1						15	became lighter	reduce pigmentation in human skin
